Measured values reported in article PMC7672115 (Scientific Reports, 2020).
Where two headings read alike, the source gives them in different places.

Experiments:
SARS-CoV-2 [1] = assay: microbe, parasite or virus in culture; assay type: cell-based; conditions: for %Inhibition at 10 µM: purified compounds
SARS-CoV-2 [2] = assay: microbe, parasite or virus in culture; assay type: cell-based; conditions: for IC50: read-out: IC50 (plaque reduction assay); for concentration with absolute inhibition of the infectious virion production: post-treatment approach, Vero E6, plaque assay
in vitro [3] = assay type: cell-based
Experimental: (§1) Cells were seeded on 96-well plates at 5 × 10^4 cells/well and treated with various concentrations of the extracts or purified compounds for 48 h. Cell viability was evaluated by an MTT colorimetric assay. In brief, the medium was replaced with MTT [3-(4,5-dimethylthiazol-2-yl)-2,5-diphenyltetrazolium bromide] (Sigma-Aldrich, USA) and incubated for 4 h at 37 °C in a humidified incubator with 5% CO2. The formazan crystal was dissolved with DMSO (Merck, Germany) and measured at a wavelength of 570 nm by EnVision Multilabel Reader (PerkinElmer, USA). Data was normalized versus the solvent control, and then CC50 values were calculated using GraphPad Prism 7.

SARS-CoV-2 [4] = assay: microbe, parasite or virus in culture; conditions: Severe acute respiratory syndrome coronavirus 2, Vero C1008, 48 h, read-out: IC50 (virus inhibition, high-content imaging/IFA)
SARS-CoV-2 [5] = assay: microbe, parasite or virus in culture; assay type: cell-based; conditions: Vero E6
SARS-CoV-2 [6] = conditions: for SI (CC50/IC50): post-infection, Vero E6
SARS-CoV-2 [7] = conditions: pre-entry, Vero E6
SARS-CoV-2 [8] = assay: microbe, parasite or virus in culture; conditions: Severe acute respiratory syndrome coronavirus 2, Vero C1008, read-out: IC50 (virus inhibition, high-content imaging)
SARS-CoV-2 [9] = assay: Plaque reduction assay of viral output, pre-entry treatment, Vero E6 cells; assay type: cell-based
SARS-CoV-2 [10] = assay: microbe, parasite or virus in culture; assay type: cell-based
SARS-CoV-2 [11] = assay: microbe, parasite or virus in culture; assay type: cell-based; remark: listed apart in the source
[12] = tested on: HepG2, imHC, HK-2, SH-SY5Y, Caco-2; assay: Cell viability assay (MTT) in various human cell types; assay type: cell-based; conditions: 0 - 100 µM, 48 h
[13] = Cell viability assay (MTT) in Calu-3 cells; conditions: human
in vitro [14] = conditions: human
Vero E6 cells = assay: in vitro; assay type: cell-based; conditions: Vero E6, post-infection treatment setting, 48 h
Experimental: as §1

[15] = Severe acute respiratory syndrome coronavirus 2, Vero C1008, 48 h
[16] = Vero E6, post-infection treatment setting, 48 h, read-out: CC50
[17] = Severe acute respiratory syndrome coronavirus 2, Vero C1008, purified compounds, single dose 10 µM, Vero E6, SARS-CoV-2 25TCID50, read-out: %Inhibition at 10 µM
[18] = Severe acute respiratory syndrome coronavirus 2, Vero C1008, post-infection treatment, Vero E6, 48 h
[19] = single dose 10 µM, Vero E6, SARS-CoV-2 25TCID50
[20] = Vero E6, pre-entry treatment setting, read-out: CC50

For `CCCCC[C@H](O)CC(=O)CCc1ccc(O)c(OC)c1` [6-Gingerol], which inhibition at 10 µM (SARS-CoV-2 [1]; Severe acute respiratory syndrome coronavirus 2, Vero C1008, read-out: %Inhibition at 10 µM) is on record?
Its inhibition at 10 µM is 7.78%.

What about the “inhibitory activity against SARS-CoV-2 infection (in words)” value (SARS-CoV-2 [1]; extract at 10 µg/mL, compound at 10 µM) of the same compound?
The value was “mild effect”.

And the IC50 (SARS-CoV-2 [2]; [15])?
Its IC50 is 1.38 µM.

What about the CC50 at 48 h (in vitro [3]; [16]) of the same compound?
The CC50 at 48 h was over 100 µM.

What about the IC50 (SARS-CoV-2 [4]) of the same compound?
The IC50 was over 100 µM.

What does the source list for `C=C1CC[C@@H]2[C@](C)(CO)[C@H](O)CC[C@@]2(C)[C@@H]1C/C=C1/C(=O)OC[C@H]1O` [Andrographolide]?
inhibition at 10 µM (SARS-CoV-2 [1]; [17]): 99.9%; %Inhibition at 10 µM (SARS-CoV-2 [1]; single dose 10 µM, Vero E6, SARS-CoV-2 25TCID50, listed as ECDD-NAD): 99.97%; IC50 (SARS-CoV-2 [2]; [18]): 0.28 µM; concentration with absolute inhibition of the infectious virion production (SARS-CoV-2 [2]): 12.5 µM; CC50 at 48 h (in vitro [3]; African green monkey, CC50): 27.8 µM; IC50 (SARS-CoV-2 [4]): 6.58 µM

With `CCCCCCC[C@H](O)CC(=O)CCc1ccc(O)c(OC)c1` [ECDD-DPM-N95, 8-Gingerol] as the compound, how does the “%Inhibition at 10 µM” value (SARS-CoV-2 [1]; [19]) read?
Its value is 17.59%.

With `CCCCCCCCC[C@H](O)CC(=O)CCc1ccc(O)c(OC)c1` [ECDD-DPM-N96, 10-Gingerol] as the compound, how does the “%Inhibition at 10 µM” value (SARS-CoV-2 [1]; [19]) read?
Its value is 23.51%.

With `CCCCC/C=C/C(=O)CCc1ccc(O)c(OC)c1` [ECDD-DPM-N97, 6-Shogaol] as the compound, how does the “%Inhibition at 10 µM” value (SARS-CoV-2 [1]; [19]) read?
The value was 12.17%.

Which “%Inhibition at 10 µM” value (SARS-CoV-2 [1]; [19]) does the source give for `COc1c(O)cc2oc3cc(O)c(CC=C(C)C)c(O)c3c(=O)c2c1CC=C(C)C` [ECDD-NAM, alpha-mangostin] here?
Its value is 9.08%.

For `CCN(CCO)CCCC(C)Nc1ccnc2cc(Cl)ccc12` (stereo not shown) [Hydroxychloroquine, reference compound], which IC50 (SARS-CoV-2 [2]; [18]) is on record?
The IC50 was 0.282 µM.

And the CC50 at 48 h (in vitro [3]; African green monkey, Vero E6, post-infection treatment setting, 48 h, read-out: CC50)?
Its CC50 at 48 h is over 100 µM.

And the CC50 at 48 h (in vitro [3]; African green monkey, Vero E6, pre-infection phase setting, read-out: CC50)?
Its CC50 at 48 h is over 100 µM.

And the CC50 at 48 h (in vitro [3]; [20])?
The CC50 at 48 h was over 100 µM.

And the IC50 (SARS-CoV-2 [5]; Severe acute respiratory syndrome coronavirus 2, Vero C1008, pre-infection phase, read-out: IC50 (virus inhibition, high-content imaging))?
Its IC50 is 20.6 µM.

What about the “SI (CC50/IC50)” value (SARS-CoV-2 [6]) of the same compound?
Its value is over 19.68.

And the “SI (CC50/IC50)” value (SARS-CoV-2 [7])?
Its value is over 12.39.

What about the IC50 (SARS-CoV-2 [4]) of the same compound?
The IC50 was 5.08 µM.

What about the IC50 (SARS-CoV-2 [8]) of the same compound?
The IC50 was 8.07 µM.

For `CCCCCCCCC/C=C/C(=O)CCc1ccc(O)c(OC)c1` [MUC1775, 10-Shogaol], which “%Inhibition at 10 µM” value (SARS-CoV-2 [1]; [19]) is on record?
The value was 5.7%.

With `COc1cc(O)c(C(=O)[C@@H]2[C@H](CC=C(C)C)C(C)=CC[C@H]2c2ccccc2)c(O)c1` [Panduratin A] as the compound, how does the inhibition at 10 µM (SARS-CoV-2 [1]; [17]) read?
Its inhibition at 10 µM is 99.9%.

What about the “%Inhibition at 10 µM” value (SARS-CoV-2 [1]; single dose 10 µM, Vero E6, SARS-CoV-2 25TCID50, listed as ECDD-NPA) of the same compound?
The value was 99.97%.

And the IC50 (SARS-CoV-2 [2]; [18])?
The IC50 was 0.078 µM.

And the “concentration with absolute inhibition of the infectious virion production” value (SARS-CoV-2 [2])?
The value was 5 µM.

And the CC50 at 48 h (in vitro [3]; [16])?
The CC50 at 48 h was 14.7 µM.

What about the CC50 at 48 h (in vitro [3]; [20]) of the same compound?
The CC50 at 48 h was 43.5 µM.

What about the IC50 (SARS-CoV-2 [9]; Severe acute respiratory syndrome coronavirus 2, Vero C1008, Vero E6) of the same compound?
The IC50 was 7.62 µM.

What about the “dose with absolute suppression of the infectious virion production” value (SARS-CoV-2 [9]; Vero E6, plaque assay) of the same compound?
The value was 50 µM.

And the “antiviral effect (in words)” value (SARS-CoV-2 [5]; cells treated with extract/compound before viral adsorption)?
The value was “did not exerted a dramatic antiviral effect”.

What about the IC50 (SARS-CoV-2 [10]; Severe acute respiratory syndrome coronavirus 2, post-treatment, Calu-3, read-out: IC50 (virus inhibition, high-content imaging/IFA)) of the same compound?
The IC50 was 2.04 µM.

And the IC50 (SARS-CoV-2 [11]; Severe acute respiratory syndrome coronavirus 2, post-treatment, Calu-3, read-out: IC50 (plaque assay))?
Its IC50 is 0.53 µM.

What about the “cytotoxicity at the therapeutic window (in words)” value [12] of the same compound?
The value was “no or minimal cytotoxicity”.

What about the “SI (CC50/IC50)” value (SARS-CoV-2 [6]) of the same compound?
The value was 18.16.

And the “SI (CC50/IC50)” value (SARS-CoV-2 [7])?
The value was 8.20.

And the IC50 (SARS-CoV-2 [4])?
Its IC50 is 0.81 µM.

And the IC50 (SARS-CoV-2 [8])?
The IC50 was 5.3 µM.

And the CC50 at 48 h [13]?
Its CC50 at 48 h is 43.9 µM.

With `CCC(CC)COC(=O)[C@H](C)N[P@](=O)(OC[C@H]1O[C@@](C#N)(c2ccc3c(N)ncnn23)[C@H](O)[C@@H]1O)Oc1ccccc1` [Remdesivir, reference compound] as the compound, how does the IC50 (SARS-CoV-2 [2]; [15]) read?
Its IC50 is 2.65 µM.

And the IC50 (SARS-CoV-2 [10]; Severe acute respiratory syndrome coronavirus 2, Calu-3, read-out: IC50 (virus inhibition, high-content imaging/IFA))?
Its IC50 is 0.043 µM.

And the IC50 (SARS-CoV-2 [11]; Severe acute respiratory syndrome coronavirus 2, Calu-3, read-out: IC50 (plaque assay))?
Its IC50 is 0.086 µM.

And the CC50 (in vitro [14])?
Its CC50 is 16 µM.

And the IC50 (SARS-CoV-2 [4])?
The IC50 was 2.71 µM.

With Ivermectin [reference compound] as the compound, how does the CC50 (Vero E6 cells) read?
Its CC50 is 31.7 µM.

What about the IC50 (SARS-CoV-2 [6]; read-out: IC50 (virus inhibition, high-content imaging/IFA), post-infection treatment, Vero E6, 48 h) of the same compound?
Its IC50 is 12.7 µM.
